Measured values from ChEMBL document CHEMBL1201862, “PubChem BioAssay data set” (2004).
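Growth conditions: 96-well plates. Treatment: test compound, 48 hours, 5 concentrations. Analysis: linear interpolation between bracketing concentrations; unreached endpoints set to highest concentration. GI50 = concentration required for 50% inhibition of growth.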 Activity calls are given as the source filed them. No stated cut-off is given here; in the data, active = GI50 up to about 1.1 µM and inactive = higher.

Experiments:
Assay in all cases: NCI-60 cell line screen, 48 h
[1] = tested on: M19-MEL
[2] = tested on: HOP-62
[3] = tested on: K562
[4] = tested on: SK-MEL-5
[5] = tested on: SN12C
[6] = tested on: OVCAR-5
[7] = tested on: OVCAR-3
[8] = tested on: SK-OV-3
[9] = tested on: RXF 393
[10] = tested on: SF-539
[11] = tested on: SW-620
[12] = tested on: HCC 2998
[13] = tested on: HL-60
[14] = tested on: MDA-N
[15] = tested on: A498
[16] = tested on: Hs-578T
[17] = tested on: SNB-19
[18] = tested on: NCI-H226
[19] = tested on: MDA-MB-435
[20] = tested on: MDA-MB-231

Measured: GI50

O=C(NCc1ccncc1)C1COc2cc(-c3cc(=O)c4ccccc4o3)ccc2O1 (centres undefined)
inactive: [1] > 100 µM | [2] > 100 µM | [3] > 100 µM | [4] > 100 µM | [5] > 100 µM | [6] > 100 µM | [7] > 100 µM | [8] > 100 µM | [9] > 100 µM | [10] > 100 µM | [11] > 100 µM | [12] > 100 µM | [13] > 100 µM

Cc1ccc2c(c1)C(=O)c1ccc(C)nc1C2=O
inactive: [2] 37.8 µM | [3] 48.4 µM | [4] 13.2 µM | [5] 20.4 µM | [6] > 100 µM | [14] 16.6 µM | [7] 6.19 µM | [15] > 100 µM | [8] > 100 µM | [9] > 100 µM | [10] 23 µM | [11] 27.9 µM | [16] > 100 µM | [12] 31.3 µM | [17] 22.2 µM | [18] > 100 µM | [19] 19.3 µM | [13] 26.7 µM | [20] 3.98 µM

NC(=O)c1ncn(C2OC(CO)C(O)C2O)c1NC=O (centres undefined)
inactive: [2] > 100 µM | [3] > 100 µM | [4] > 100 µM | [5] > 100 µM | [6] > 100 µM | [14] > 100 µM | [7] > 100 µM | [15] > 100 µM | [8] > 100 µM | [9] > 100 µM | [10] > 100 µM | [11] > 100 µM | [16] > 100 µM | [12] > 100 µM | [17] > 100 µM | [18] > 100 µM | [19] > 100 µM | [13] > 100 µM | [20] > 100 µM

O=[N+]([O-])c1ccc(C(Nc2ccccc2)c2ccc3cccnc3c2O)cc1 (centres undefined)
inactive: [2] 7.48 µM | [3] 12.6 µM | [4] 7.18 µM | [5] 7.94 µM | [6] 8.2 µM | [14] 23.7 µM | [7] 4.02 µM | [15] 24.1 µM | [8] 23.8 µM | [9] 5.15 µM | [10] 3.72 µM | [11] 6.27 µM | [16] 19.6 µM | [12] 12.9 µM | [17] 7.74 µM | [18] 3.78 µM | [19] 14.4 µM | [13] 3.37 µM | [20] 16.2 µM

C[N+](C)(C)C(Cc1c[nH]c(=S)[nH]1)C(=O)O (centres undefined)
inactive: [2] > 100 µM | [3] > 100 µM | [4] > 100 µM | [5] > 100 µM | [6] > 100 µM | [14] > 100 µM | [7] > 100 µM | [15] > 100 µM | [8] > 100 µM | [9] > 100 µM | [10] > 100 µM | [11] > 100 µM | [16] > 100 µM | [12] > 100 µM | [17] > 100 µM | [18] > 100 µM | [19] > 100 µM | [13] > 100 µM | [20] > 100 µM

CC(=O)Nc1ccc(-c2nnc(SCC(=O)Nc3ccc([N+](=O)[O-])cc3)o2)cc1
inactive: [1] 13.5 µM | [2] 26.3 µM | [3] 36.4 µM | [4] 13.1 µM | [5] 16.3 µM | [6] 19.8 µM | [7] 14.5 µM | [8] 17.8 µM | [9] 14.7 µM | [10] 24.3 µM | [11] 16.2 µM | [18] 15.7 µM | [13] > 100 µM

CC1(C2COC(=O)C2)SCCCS1 (centres undefined)
inactive: [1] > 100 µM | [2] > 100 µM | [4] > 100 µM | [5] > 100 µM | [7] > 100 µM | [8] 53.8 µM | [9] > 100 µM | [10] > 100 µM | [11] > 100 µM | [12] > 100 µM | [17] > 100 µM | [18] > 100 µM | [13] > 100 µM

COc1cccc(CCN2CCN(CCCc3ccccc3)CC2)c1
inactive: [2] 79.1 µM | [3] 32.1 µM | [4] 19.4 µM | [5] > 100 µM | [6] > 100 µM | [14] > 100 µM | [7] 64.6 µM | [15] 61 µM | [8] 88.1 µM | [9] 71 µM | [10] > 100 µM | [11] > 100 µM | [16] > 100 µM | [12] 58.3 µM | [17] > 100 µM | [18] 71 µM | [19] 85.9 µM | [13] 61.4 µM | [20] > 100 µM
